US20230204565A1, “Methods for Culturing Cancer Cells and for Inhibiting Invasion of Cancer” (The Regents of the University of California, priority 2020, published 2023)
“Also recorded” adds a separate entry of the source.

Tests used:
[1] = system: DBTRGFL patient derived xenograft line; test: Time-lapse imaging of MST after shRNA knockdown in PDX line; assay type: cell-based, human; conditions: 4 technical replicates
Procedure: FIG. 6A. PTPRZ1 Promotes MST driven invasiveness of glioblastoma.
Dissociated tumor cells were seeded onto matrigel coated glass bottom wells. 24 hours after plating cells were infected with a CMV-adeno-GFP virus (Vector Biolabs) to allow for visualization of cell morphology and behavior. Cell were cultured at 37° C., 5% CO2, and 8% O2, and monitored for GFP and expression (~ 24 to 48 h). Cultured cells were then transferred to an inverted Leica TCS SP5 with an on-stage incubator (while streaming 5% CO2, 5% O2, balance N2 into the chamber), and imaged in both the GFP and transmitted light channels using a × 10 objective at 15-20 min intervals for up to 4. Movies were analyzed with Imaris.

oRG cells = test: Time-lapse imaging of mitotic somal translocation (MST) after shRNA knockdown, primary cortical slice culture; assay type: cell-based, human; conditions: for length of MST (somal translocation length): oRG cells during normal human development, primary slice culture, vs scrambled control hairpin
Excerpt: As described by Hansen et al. (2010), human fetal brain tissue was collected and transported in artificial CSF (ACSF; 125 mm NaCl, 2.5 mm KCI, 1 mm MgCl2, 2 mm CaCl2, 1.25 mm NaH2PO4, 25 mm NaHCO3, 25 mm d-(+)-glucose, bubbled with 95%O2/5%CO2). Brain tissue was embedded in 3% low melting point agarose in ACSF and 250-300 µm coronal vibratome sections were generated. Sections were transferred on Millicell-CM slice culture inserts (Millipore) and cultured in cortical slice culture medium (66% BME, 25% Hanks, 5% FBS, 1% N-2, 1% penicillin, streptomycin and glutamine, all Invitrogen, and 0.66% d-(+)-glucose, Sigma-Aldrich). High titer gfp labeled lentivirus was applied directly to slices that were then cultured at 37° C., 5% CO2, 8% O2 for ~ 96 h. For time-lapse imaging, cultures were then transferred to an inverted Leica TCS SP5 with an on-stage incubator streaming 5% CO2, 5% O2, balance N2 into the chamber. Slices were imaged for GFP using a 10x objective at 15-30 min intervals for up to 3 d with repositioning of the z-stacks every ~12 h. Movies were analyzed with Imaris.
PTPRZ1 and its ligand, PTN, are identified in this disclosure as necessary for tumor invasion and viability. It was tested whether the expression of PTPRZ1 is required for the role of oRG-like cells in glioblastoma invasion using genetic and pharmacologic approaches. Previous work has linked PTPRZ1 and PTN with the Rho/Rho-kinase (ROCK) signaling pathway in glioblastoma. […] Given that the functional significance of key oRG markers such as PTPRZ1 remains unknown, and the role of MST has not been previously described in glioblastoma, the role of PTPRZ1/PTN signaling in oRG cell behavior was studied. shRNA mediated knock down of both PTPRZ1 and PTN in oRG cells was used during normal human development and the impact on MST was monitored. […] To relate these findings to invasive behavior, in vitro invasion assays were performed on PDX tumor samples treated with either control, scrambled shRNAs, PTPRZ1 shRNAs, or Rock inhibitor to inhibit MST.

[2] = system: patient derived xenograft (PDX) line DBTRGFL; test: In vitro invasion assay (gap filling); assay type: cell-based, human; conditions: imaged every 24 hours, Day 0 to Day 3, vs scrambled shRNA control
Procedure: FIG. 6B. PTPRZ1 Promotes MST driven invasiveness of glioblastoma. Invasion assays of patient derived xenograft (PDX) line DBTRGFL were performed with control (scrambled shRNA), PTPRZ1 knockdown (shRNA) and Rock Inhibition. Invasions were imaged every 24 hours, and Day 0 and Day 3 are shown. Quantification was performed by calculating how much of the gap was filled. Statistics were performed for both PTPRZ1 knockdown and Rock inhibition, and statistics are showing for Rock inhibition on top and PTPRZ1 knockdown below (* = p <0.05, ** p < 0.01, *** p < 0.001, Student’s two-sided t-test).
PTPRZ1 and its ligand, PTN, are identified in this disclosure as necessary for tumor invasion and viability. It was tested whether the expression of PTPRZ1 is required for the role of oRG-like cells in glioblastoma invasion using genetic and pharmacologic approaches. Previous work has linked PTPRZ1 and PTN with the Rho/Rho-kinase (ROCK) signaling pathway in glioblastoma. […] Given that the functional significance of key oRG markers such as PTPRZ1 remains unknown, and the role of MST has not been previously described in glioblastoma, the role of PTPRZ1/PTN signaling in oRG cell behavior was studied. shRNA mediated knock down of both PTPRZ1 and PTN in oRG cells was used during normal human development and the impact on MST was monitored. […]

[3] = system: primary developing human cortex cells and primary glioblastoma cells; test: Single-cell RNA sequencing after PTPRZ1 knockdown; assay type: cell-based; conditions: primary and glioblastoma samples
Excerpt: FIG. 5F. Sorting for PTPRZ1 positive cells enriches for oRG-like cells. Workflow of single-cell sequencing is shown. PTPRZ1 KD and a scrambled control were used to knockdown PTPRZ1 in both primary developing human cortex cells and primary glioblastoma cells. […] (* = p-value < 0.05). […] These changes were accompanied by a significant downregulation of several outer radial glia marker genes.
Primary cells (GW 17, n = 2) and primary tumor samples (n = 2) were dissociated and infected with lentivirus either with a hairpin against PTPRZ1 mRNA or a control hairpin during plating. Cells were maintained in their normal media conditions for 1 week, after which cells were removed from the plate with trypsinization, dissociated into a single-cell suspension, and captured with 10X v2 single-cell as previously described.
To better understand the molecular mechanism of PTPRZ1 signaling in glioblastoma tumor propagation, and to characterize how these cells differ from normal radial glia, in vitro KD was performed of PTRPZ1 in dissociated cell culture of primary developing cortex, primary tumor dissociated cell culture, and PDX dissociated cell culture. […] Each control/treatment pair was analyzed individually and the radial glia populations were isolated for further examination (FIG. 5F). […]

[4] = Proliferation, cell titer blue assay; assay type: cell-based; conditions: any time point, n=5
Excerpt: FIG. 12D. Transplants of primary glioblastoma tumors into cortical organoids. Proliferation as indicated by cell titer blue assay is shown for PTPRZ1 shScr (Ctrl) or shPTPRZ1 (KD). […] On the right, an invasion well with white lines added to mark the bounds of the invasion chamber.

PTPRZ1 = test: Validation of knockdown (immunofluorescence, Western blot, qPCR); assay type: cell-based, human; conditions: vs scrambled control hairpin
Procedure: FIG. 12B. Transplants of primary glioblastoma tumors into cortical organoids. […] Western blot and qPCR to validate knockdown (quantified across 3 replicates for qPCR) were also performed.

Substance	length of MST (somal translocation length) [1]	length of MST (somal translocation length) (oRG cells)	somal translocation length (oRG cells; primary samples, 3 biological replicates and 4 technical replicates each (FIG. 6A))	invasive behavior of the PDX tumors [2]	proportion of radial glia and other progenitor populations ([3]; 1 week after lentiviral infection, vs scrambled hairpin)	expression of other key markers of radial glia identity ([3]; radial glia populations)	Proliferation, difference shScr (Ctrl) vs shPTPRZ1 (KD) [4]	PTPRZ1 protein knockdown (PTPRZ1)
PTPRZ1 shRNA: short hairpin RNA against PTPRZ1 mRNA, lentivirus-delivered; exemplary sequence SEQ ID NO: 5 (CCGGCCAGACAACAAGCACAAGAATCTCGAGATTCTTGTGCTTGTTGTCTGGTTTTT)	similarly impacted the length of MST; also recorded: decrease the length of somal translocation length	significantly reduced the length of MST; also recorded: decrease the length of somal translocation length	decrease the length of somal translocation length	significantly decreased the invasive behavior	decrease in the proportion of both radial glia and other progenitor populations	down-regulated	not significant	validates protein knockdown
PTN shRNA: short hairpin RNA knocking down PTN, the ligand of PTPRZ1; exemplary sequence SEQ ID NO: 6 (CCGGAGGCAAGAAACAGGAGAAGATCTCGAGATCTTCTCCTGTTTCTTGCCTTTTTT)		significantly reduced the length of MST; also recorded: decrease the length of somal translocation length						
